Like-named read-outs stand apart in the source and are kept apart here.
Molecular target: T1, Acetylcholinesterase (AChE) (Rattus norvegicus, UniProt P37136)
T1 construct: corpora striata dissected free, weighed and homogenized in 19 volumes; from tissue; host or cells: rat corpora striata (brain) homogenate, male Wistar rats
Assay: In vitro inhibition of acetylcholinesterase activity in rat striatum (modified Ellman method)
Assay type: biochemical
Source text: Cholinesterases are found throughout the body, both in the brain and in serum. However, only brain acetylcholinesterease (AChE) distribution is correlated with central cholinergic innervation. […] We have determined in vitro inhibition of acetylcholinesterase activity in rat striatum according to the method described below.
In Vitro Inhibition of Acetylcholinesterase Activity in Rat Striatum
The method described below was used in this invention for assaying anticholinesterase activity. This is a modification of the method of Ellman et al., Biochem. Pharmacol. 7, 88 (1961).
• A. Reagents - • 1. 0.05 M Phosphate buffer, pH 7.2 • (a) 6.85 g NaH₂PO₄·H₂O/100 mi distilled H₂O • (b) 13.40 g Na₂HPO₄·7H₂O/100 ml distilled H₂O • (c) add (a) to (b) until pH reaches 7.2 • (d) Dilute 1:10 • 2. […] If active, IC₅₀ values are determined from the inhibitory activity of subsequent concentrations. • B. Tissue Preparation - Male Wistar rats are decapitated, brains rapidly removed, corpora striata dissected free, weighed and homogenized in 19 volumes (approximately 7 mg protein/ml) of 0.05 M phosphate buffer, pH 7.2, using a Potter-Elvehjem homogenizer. […] Assay Enzyme activity is measured with the Beckman DU-50 spectrophotometer. […] This program also calculates the rate of absorbance change for each cuvette. […]

T1 sequence (P37136 32-614): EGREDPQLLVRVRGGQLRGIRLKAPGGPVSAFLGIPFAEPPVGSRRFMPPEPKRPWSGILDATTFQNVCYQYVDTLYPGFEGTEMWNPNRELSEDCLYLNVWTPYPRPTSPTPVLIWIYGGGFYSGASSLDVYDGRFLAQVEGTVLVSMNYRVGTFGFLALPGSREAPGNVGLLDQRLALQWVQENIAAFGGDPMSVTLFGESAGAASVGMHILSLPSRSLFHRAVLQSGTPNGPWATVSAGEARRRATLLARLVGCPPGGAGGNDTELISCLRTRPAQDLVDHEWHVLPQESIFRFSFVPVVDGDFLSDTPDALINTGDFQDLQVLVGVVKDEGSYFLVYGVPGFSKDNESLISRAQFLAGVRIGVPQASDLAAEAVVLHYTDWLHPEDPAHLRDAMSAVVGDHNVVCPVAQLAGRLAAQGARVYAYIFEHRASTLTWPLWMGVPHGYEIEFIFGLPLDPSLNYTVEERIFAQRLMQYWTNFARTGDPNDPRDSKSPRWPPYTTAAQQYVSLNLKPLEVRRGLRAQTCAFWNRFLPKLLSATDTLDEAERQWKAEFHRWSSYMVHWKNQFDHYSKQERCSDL

## CNC(=O)Oc1ccc2c(ccn2Cc2ccncc2)c1 [Example 1, 1-(4-Pyridinylmethyl)-1H-indol-5-yl methylcarbamate]
  IC50: 6.83 µM

## O=C(NCc1ccccc1)Oc1ccc2c(ccn2Cc2ccncc2)c1 [Example 3, 1-(4-Pyridinylmethyl)-1H-indol-5-yl phenylmethylcarbamate]
Brain acetylcholinesterase, rat striatum homogenate, preincubated 10 minutes at 37°C, acetylthiocholine 5 mM final, pH 7.2, read-out: Inhibitory Concentration IC₅₀
  IC50: 12.5 µM

Reference: patent EP0471298B1, “Carbamoyl-1-(pyridinylalkyl)-1H-indoles, indolines and related analogs” (priority 1990, dated 1992)
